This note sets out measurements from patent US11365194B2, “Analgesic drug using PAC1 receptor antagonistic drug” (KAGOSHIMA UNIVERSITY, priority 2017, dated 2022).

Experiment [1] relates to mechanical allodynia induced by spinal nerve injury. Put plainly: Spinal nerve ligation (SNL) model, repeated intraperitoneal administration, mechanical allodynia. It counts as in vivo, mouse. To be noted: for suppression of the onset of mechanical allodynia: 30 mg/kg i.p. before ligation and once a day for 7 days. The protocol:
(§1) Male ddY mice (6 to 12 weeks old) were used, and the threshold to a mechanical stimulus was evaluated by the vonFrey test. Specifically, the 50% withdrawal reflex threshold (Threshold) was calculated in accordance with the method of Chaplan et al. (Chaplan et al., J. Neurosci. Meth. 53, 55-63, 1994). Each compound was dissolved in 99.7% DMSO, and then the resulting solution was diluted with an artificial cerebrospinal fluid for preparation (final concentration of DMSO was 0.2%).
Spinal nerve ligation (SNL) models in which the fourth lumbar cord spinal nerves of male ddY (6 to 12 weeks old) were ligated with silk thread were used. A solvent (VEH: 10% DMSO-containing saline). PA-8, the compound 2j or the compound 20 was intraperitoneally administered (30 mg/kg) 5 to 10 minutes before the ligation, and once a day for 7 days thereafter. The method of causing a mechanical stimulus is the same as that of Example 5, and data from the first day after the ligation (D1) are data 1 hour after the administration of VEH or the drugs.

Experiment [2] deals with cold allodynia induced by oxaliplatin. The experiment is described as follows: Onset of cold allodynia induced by oxaliplatin, drug given around oxaliplatin administration. It counts as in vivo, mouse. To be noted: 10 mg/kg oral. As for the experimental part:
Oxaliplatin was dissolved in 5% glucose-containing saline and intraperitoneally administered at a dose of 2 mg/kg. Drug administration (oral administration) was performed 30 minutes before oxaliplatin administration (FIG. 7A); or 3 times: 30 minutes before oxaliplatin administration, 2.5 hours after the administration, and 5.5 hours after the administration (FIG. 7B). Male ddY mice (6 to 12 weeks old) were used. The axis of ordinates is the duration of the behavior of licking and paw waving after the application of an acetone drop (10 μL) to the footpad of a hind paw.

Experiment [3] addresses T1, mouse PAC receptor-expressing CHO cell (PAC1/CHO cell) (Mus musculus, UniProt P70205).
T1 construct: expressed in transfected cells; host or cells: CHO cells
T1 sequence (P70205 21-496): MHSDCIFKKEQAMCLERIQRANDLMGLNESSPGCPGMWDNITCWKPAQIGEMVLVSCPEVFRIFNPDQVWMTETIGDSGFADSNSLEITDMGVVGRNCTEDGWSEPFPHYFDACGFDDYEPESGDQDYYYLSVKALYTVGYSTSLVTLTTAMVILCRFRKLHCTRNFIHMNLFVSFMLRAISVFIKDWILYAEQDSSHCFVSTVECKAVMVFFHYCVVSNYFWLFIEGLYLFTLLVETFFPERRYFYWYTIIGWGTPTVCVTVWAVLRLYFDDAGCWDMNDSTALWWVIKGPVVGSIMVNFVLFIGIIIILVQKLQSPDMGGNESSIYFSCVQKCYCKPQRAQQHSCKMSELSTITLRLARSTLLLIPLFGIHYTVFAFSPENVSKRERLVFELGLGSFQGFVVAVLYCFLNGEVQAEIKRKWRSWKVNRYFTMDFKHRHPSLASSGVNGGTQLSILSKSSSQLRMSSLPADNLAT
Put plainly: CREB phosphorylation by PACAP stimulus, Western blot, PAC1/CHO cell. To be noted: for suppression of CREB phosphorylation by PACAP (1 nM): PAC1/CHO cell, compound 10 μM to 10 nM, 30 minutes before 1 nM PACAP; for effect of suppressing CREB phosphorylation compared with basic compound: at 1 nM, 2o versus PA-8, 3d versus PA-9, FIG. 3. It counts as cell-based. As for the experimental part: The effect of each compound on the phosphorylation of CREB (cAMP-responsive element-binding protein) produced by a PACAP stimulus was examined by Western blot analysis using an anti-phosphorylated CREB (pCREB) antibody with a mouse PAC receptor-expressing CHO cell (PAC1/CHO cell) and a mouse VPAC1 receptor-expressing CHO cell (VPAC1/CHO cell).
Specifically, treatment with a compound (PA-8, PA-9, compounds 2j, 20 and 3d) at 10 μM to 10 nM or a solvent therefor (VEH: 0.1% DMSO-containing phosphate buffer solution) was performed for 30 minutes, 1 nM PACAP was then added, and protein was recovered within 30 minutes after a PACAP stimulus.
(Immunoblotting shows a protein as a band on a membrane.)

Experiment [4] concerns cold allodynia induced by oxaliplatin. The experiment is described as follows: Cold allodynia induced by oxaliplatin, drug on fourth day after oxaliplatin (acetone test). It counts as in vivo, mouse. To be noted: 10 mg/kg, single oral administration; for suppression of cold allodynia by oxaliplatin: fourth day after oxaliplatin. The protocol:
Oxaliplatin was dissolved in 5% glucose-containing saline and intraperitoneally administered at a dose of 2 mg/kg. A drug was administered on the fourth day after oxaliplatin administration. Male ddY mice (6 to 12 weeks old) were used. The axis of ordinates is the duration of the behavior of licking and paw waving after the application of an acetone drop (10 L) to the footpad of a hind paw.

In experiment [5] the test system is mechanical allodynia induced by PACAP intrathecal administration. The experiment is described as follows: Mechanical allodynia induced by PACAP intrathecal administration (von Frey test). To be noted: simultaneous i.t. It is filed as in vivo, mouse. The protocol: When single i.t. administration of PACAP (100 pmol/5 L) to mouse was performed, mechanical stimulus sensitive phenomenon (mechanical allodynia) occurred over a long period of time (for at least three months after the administration) (Non Patent Literature 1). […] The mechanical sensitive phenomenon induced by PACAP was not suppressed in an example in which a solvent (VEH: 0.2% DMSO-containing artificial cerebrospinal fluid) was used instead of the compounds.
as §1

In experiment [6] the test system is spontaneous pain-like behavior induced by PACAP intrathecal administration. Put plainly: Spontaneous pain-like behavior induced by PACAP intrathecal administration. It is filed as in vivo, mouse. To be noted: for suppression of PACAP-induced spontaneous pain-like behavior: simultaneous i.t. with PACAP (100 pmol), counted for 30 minutes. The protocol:
When PACAP (100 pmol/5 L) is intrathecally administered to a mouse in a single dose (single i.t. injection), spontaneous pain-like behavior in which the mouse licks or bites the rear half of the body occurs about 5 minutes after the administration (and continues for several hours) (Ohnou et al. J. Pharmacol. Sci. 130, 194-203, 2016). […] Male ddY mice (6 to 12 weeks old) were used, and the behaviors were taken on video. The number of times of spontaneous pain-like behaviors for 30 minutes after the administration was counted.

Experiment [7] concerns mechanical allodynia induced by spinal nerve injury. The experiment is described as follows: Spinal nerve ligation (SNL) model, i.t. administration on 14th day, mechanical allodynia. It is filed as in vivo, mouse. To be noted: for anti-mechanical allodynia effect: 100 pmol i.t. on 14th day after operation. As for the experimental part: as §1
Spinal nerve ligation (SNL) models in which the fourth lumbar cord spinal nerves of male ddY (6 to 12 weeks old) were ligated with silk thread were used. The i.t. administration of a solvent (VEH: 10% DMSO-containing saline), PA-8, the compound 2j or the compound 2o (FIG. 9A), or PA-9 or the compound 3d (FIG. 9B) was performed on the 14th day after the operation. The method of causing a mechanical stimulus is the same as that of Example 5, and data were acquired for 24 hours after i.t. administration over time.

For experiment [8], the system named is pain-like behavior induced by formalin. Put plainly: Pain-like behavior induced by formalin. It is filed as in vivo, mouse. To be noted: 0.1 to 10 nmol i.t. As for the experimental part:
The first phase is direct action of formalin on sensory nerves (to around 10 minutes after formalin administration). In the second phase (from around 10 minutes to 60 minutes after formalin administration), hypersensitization formed in spinal dorsal horn cells during the first phase (a type of plastic phenomenon in the nervous system also called central sensitization) is a main cause, and inflammatory reaction at the site of formalin administration contributes importantly.

Where [9] appears, read: 30 minutes before oxaliplatin or 3 administrations.

In the case of `CCOc1cccc(C2CC(=O)Nc3nc(N)[nH]c(=O)c32)c1` (centres unmarked) [compound 2j, 2-Amino-5-(3-ethoxyphenyl)-5,8-dihydro-3H,6H-pyrido[2,3-d]pyrimidine-4,7-dione], the “suppression of the onset of mechanical allodynia” value in experiment [1] is given as “did not suppress the onset of mechanical allodynia”. In experiment [2] (setting [9]), the “suppression of the onset of cold allodynia by oxaliplatin” value is “suppressed the onset of cold allodynia by oxaliplatin significantly”. In addition, the “suppression of CREB phosphorylation by PACAP (1 nM)” value (“suppression of CREB phosphorylation” below) in experiment [3] was “suppressed depending on the concentration”. In addition, in experiment [4], the “suppression of cold allodynia by oxaliplatin” value is given as “suppressed cold allodynia by oxaliplatin significantly over 4 to 5 hours”. In experiment [5] (10 or 100 pmol, FIGS. 5A and B), the “suppression of long-term mechanical allodynia induced by PACAP” value is “strongly suppressed”. For the same compound, in experiment [6] (10 pmol i.t., versus PA-8 10 pmol), the “effect on PACAP response compared with PA-8” value was “significantly stronger than that of PA-8 (10 pmol)”. The “suppression of PACAP-induced spontaneous pain-like behavior” value in experiment [6] (10 pmol) and in experiment [6] (100 pmol) was “suppressed the PACAP response significantly” in each case. The anti-mechanical allodynia effect entry in experiment [7] is “suppressed the onset of mechanical allodynia significantly”. Moreover, the “maximum effect compared with compound 2o” value in experiment [7] (100 pmol i.t., 3 hours after the administration) is recorded as “significantly inferior as compared with the compound 2o”. In addition, the “effect on first phase reaction” value in experiment [8] was “did not affect the first phase reaction”. Also, the “effect on second phase reaction” value in experiment [8] is reported as “did not affect the second phase reaction”.

For the compound `Nc1nc2c(c(=O)[nH]1)C(c1cccc(OC(F)(F)F)c1)CC(=O)N2` (centres unmarked) [compound 2o, 2-Amino-5-(3-trifluoromethoxyphenyl)-5,8-dihydro-3H,6H-pyrido[2,3-d]pyrimidine-4,7-dione], in experiment [1], the “suppression of the onset of mechanical allodynia” value is “suppressed the onset of mechanical allodynia still more strongly”. Besides, the “mechanical threshold level during administration” value in experiment [1] (30 mg/kg i.p. once a day) was “maintained the mechanical threshold at a level equivalent to an uninjured side”. Further, the “mechanical threshold after discontinuation of administration” value in experiment [1] (30 mg/kg i.p., discontinued on the seventh day, versus VEH group) was “maintained the mechanical threshold highly significantly for at least 7 days thereafter”. Besides, the “suppression of the onset of cold allodynia by oxaliplatin” value in experiment [2] (setting [9]) is “suppressed the onset of cold allodynia by oxaliplatin significantly”. Also, the “suppression of the onset of cold allodynia by oxaliplatin” value in experiment [2] (three administrations (FIG. 7B)) is recorded as “suppressed the onset almost completely”. Moreover, in experiment [3], the “suppression of CREB phosphorylation” value is recorded as “suppressed CREB phosphorylation by PACAP (1 nM)” and the “effect of suppressing CREB phosphorylation compared with basic compound” value is given as “significantly stronger effect of suppressing CREB phosphorylation”. In experiment [4], the “time of onset of effect on cold allodynia” value is “effective from an earlier period of time (the first hour after administration)” and the “suppression of cold allodynia by oxaliplatin” value is “suppressed cold allodynia by oxaliplatin significantly over 4 to 5 hours”. The “suppression of long-term mechanical allodynia induced by PACAP” value in experiment [5] (10 or 100 pmol, FIGS. 5A and B) is “strongly suppressed”. For the same compound, in experiment [6] (10 pmol), the “suppression of PACAP-induced spontaneous pain-like behavior” value was “did not exhibit a significant suppressing effect”. The “suppression of PACAP-induced spontaneous pain-like behavior” value in experiment [6] (100 pmol) was “suppressing effect equivalent to PA-8 and the compound 2j”. Besides, the anti-mechanical allodynia effect entry in experiment [7] is “suppressed the onset of mechanical allodynia significantly”. In addition, in experiment [8], the “effect on first phase reaction” value is “did not affect the first phase reaction” and the “effect on second phase reaction” value is on record as “suppressed the second phase reaction significantly depending on the concentration”.

On to `O=C(NCCc1c[nH]cn1)C1CC(=O)N(c2n[nH]c3c(Cl)cccc23)C1` (centres unmarked) [compound 3d, N-[2-(1H-imidazol-4-yl)ethyl]-1-(7-chloro-1H-indazol-3-yl)-5-oxo-3-pyrrolidinecarboxamide], for which, in experiment [3], the “suppression of CREB phosphorylation” value is “suppressed CREB phosphorylation by PACAP (1 nM) depending on the concentration” and the “effect of suppressing CREB phosphorylation compared with basic compound” value is “significantly stronger effect of suppressing CREB phosphorylation”. For the same compound, the “suppression of long-term mechanical allodynia induced by PACAP” value in experiment [5] (100 pmol, FIG. 5C) was “strongly suppressed”. Also, in experiment [7] (100 pmol i.t.), the “mechanical threshold 24 hours after the administration” value is on record as “maintained the mechanical threshold highly significantly”. Also, in experiment [7], the anti-mechanical allodynia effect entry was “anti-mechanical allodynia effect equivalent to PA-8 and the compound 2j”.
